The experiment deals with T1, ΔF508-CFTR (Homo sapiens, UniProt P13569, DEL508-508).
T1 construct: expressed in transfected cells
Description: Membrane potential optical assay (FRET/VIPR), identification of correction compounds. Format: cell-based. As to conditions: for Emax: relative efficacy. The method, boiled down: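 NIH3T3 cells stably expressing ΔF508-CFTR incubated 16 hrs at 37° C in serum-free medium with test compound; 27° C incubation as positive control. CFTR then activated with 10 μM forskolin plus 20 μM genistein in Cl^−-free medium; depolarization read by DiSBAC2(3)/CC2-DMPE FRET on VIPR.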

pEC50: −log10 of the molar value.

The results in this text go back to US8642609B2, “Modulators of ATP-binding cassette transporters” (Vertex Pharmaceuticals Incorporated, priority 2003, dated 2014).

As usually defined, the pEC50 is −log10 of the EC50, conventionally taken in molar units. As a reminder, the Emax is the size of the effect at its maximum, as opposed to the concentration needed.

T1 sequence (P13569 with tags, fused parts or gaps DEL508-508): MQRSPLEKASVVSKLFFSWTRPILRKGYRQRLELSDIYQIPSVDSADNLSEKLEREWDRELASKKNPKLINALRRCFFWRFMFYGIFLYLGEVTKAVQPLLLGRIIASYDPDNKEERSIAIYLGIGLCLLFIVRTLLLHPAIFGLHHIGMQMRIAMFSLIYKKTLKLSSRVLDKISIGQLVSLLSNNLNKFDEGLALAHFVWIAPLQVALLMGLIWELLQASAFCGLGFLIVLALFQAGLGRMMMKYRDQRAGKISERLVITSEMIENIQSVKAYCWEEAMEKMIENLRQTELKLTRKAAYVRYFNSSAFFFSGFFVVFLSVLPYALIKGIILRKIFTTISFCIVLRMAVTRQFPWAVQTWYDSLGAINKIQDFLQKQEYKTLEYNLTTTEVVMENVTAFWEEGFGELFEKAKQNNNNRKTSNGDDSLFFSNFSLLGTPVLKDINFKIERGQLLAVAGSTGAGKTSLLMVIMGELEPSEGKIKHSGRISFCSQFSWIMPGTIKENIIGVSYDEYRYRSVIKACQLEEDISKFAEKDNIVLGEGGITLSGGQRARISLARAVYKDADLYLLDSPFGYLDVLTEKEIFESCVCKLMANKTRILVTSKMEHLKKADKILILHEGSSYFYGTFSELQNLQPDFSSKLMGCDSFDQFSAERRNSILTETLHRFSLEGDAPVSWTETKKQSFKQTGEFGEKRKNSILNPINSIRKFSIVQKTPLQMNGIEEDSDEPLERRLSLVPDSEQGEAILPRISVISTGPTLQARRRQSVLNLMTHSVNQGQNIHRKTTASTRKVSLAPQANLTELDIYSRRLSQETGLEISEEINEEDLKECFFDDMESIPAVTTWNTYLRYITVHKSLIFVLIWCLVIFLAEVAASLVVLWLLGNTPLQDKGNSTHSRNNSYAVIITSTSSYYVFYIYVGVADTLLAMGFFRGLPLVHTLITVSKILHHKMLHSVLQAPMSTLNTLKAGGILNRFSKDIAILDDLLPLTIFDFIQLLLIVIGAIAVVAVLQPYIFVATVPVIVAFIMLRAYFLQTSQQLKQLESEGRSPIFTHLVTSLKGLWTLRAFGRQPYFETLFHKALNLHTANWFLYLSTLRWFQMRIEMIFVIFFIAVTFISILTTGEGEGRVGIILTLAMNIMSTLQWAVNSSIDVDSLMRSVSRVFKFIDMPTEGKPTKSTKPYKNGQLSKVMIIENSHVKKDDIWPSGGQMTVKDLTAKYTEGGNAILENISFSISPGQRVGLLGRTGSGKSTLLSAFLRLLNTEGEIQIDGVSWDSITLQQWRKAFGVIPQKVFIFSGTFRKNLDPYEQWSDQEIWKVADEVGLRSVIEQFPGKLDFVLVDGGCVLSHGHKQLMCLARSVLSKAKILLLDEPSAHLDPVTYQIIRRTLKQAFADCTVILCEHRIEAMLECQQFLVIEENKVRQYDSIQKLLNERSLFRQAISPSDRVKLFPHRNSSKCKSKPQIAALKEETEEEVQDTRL

`CC(NCCNS(=O)(=O)c1ccc(Cl)cc1)c1nc2ccccc2c(=O)n1C` (stereo not drawn) [compound 168]: the pEC50 is 4.22 to 4.60 and the maximal effect (Emax) is less than 25%.
For `Cn1c(CN2CCN(S(=O)(=O)c3ccc(Br)cc3)CC2)nc2ccc(Cl)cc2c1=O` [compound 84], in that order: 4.22 to 4.60 and less than 25%.
For `CC(Nc1ccc(NS(=O)(=O)c2ccc(Br)cc2)cc1)c1nc2ccccc2c(=O)n1C` (stereo not drawn) [compound 309] the same measures were greater than 5.00 and 25 to 100%.
On to `Cc1ccc(S(=O)(=O)N2CCN(C(C)c3nc4ccc(Br)cc4c(=O)n3C)CC2)cc1` (stereo not drawn) [compound 115], for which the pEC50 was 4.60 to 5.00 and the Emax was less than 25%.
As to `CC(NC[C@@H]1CCCCN1S(=O)(=O)c1ccc(Br)cc1)c1nc2ccccc2c(=O)n1C` (stereo partly drawn) [compound 215], the pEC50 is 4.22 to 4.60 and the Emax is less than 25%.
For `CCOc1nc(C(C)N2CCN(S(=O)(=O)c3ccc(OC)cc3)CC2)nc2ccccc12` (stereo not drawn) [compound 188], in that order: 4.60 to 5.00 and greater than 100%.
Take `CC(c1nc2ccccc2c(=O)n1C)N1CCN(S(=O)(=O)c2cccc(C(F)(F)F)c2)CC1` (stereo not drawn) [compound 7]: the pEC50 was 4.60 to 5.00 and the Emax is 25 to 100%.
Turning to `COc1ccc(S(=O)(=O)N2CCN(C(C)c3nc(OC4CCC(C)CC4)c4ccccc4n3)CC2)cc1` (stereo not drawn) [compound 399], the pEC50 was greater than 5.00 and the Emax fell in the range of 25 to 100%.
For `CC(c1nc2ccc(Cl)cc2c(=O)n1C)N1CCN(C(=O)c2ccc(C(F)(F)F)cc2)CC1` (stereo not drawn) [compound 78], the negative-log EC50 (pEC50) was 4.60 to 5.00 and the Emax was less than 25%.
For `CC(c1nc2ccccc2c(=O)n1C)N1CCN(S(=O)(=O)c2ccc3oc(=O)ccc3c2)CC1` (stereo not drawn) [compound 252] the same measures were 4.22 to 4.60 and 25 to 100%.
For `COc1ccc(S(=O)(=O)N2CCN(C(C)c3nc4ccccc4c(=O)n3CCNC(C)=O)CC2)cc1` (stereo not drawn) [compound 288], in that order: 4.22 to 4.60 and less than 25%.
Consider `CCCOc1nc(C(C)N2CCN(S(=O)(=O)c3ccc(OC)cc3)CC2)nc2ccccc12` (stereo not drawn) [compound 189], for which the pEC50 was 4.60 to 5.00 and the Emax is greater than 100%.
For `CCC(c1nc2ccccc2c(=O)n1C)N1CCN(S(=O)(=O)c2ccc(OC)cc2)CC1` (stereo not drawn) [compound 337] the same measures were 4.60 to 5.00 and greater than 100%.
For `CC(c1nc2ccc(Cl)cc2c(=O)n1C)N1CCN(c2ccc(Cl)cc2)CC1` (stereo not drawn) [compound 44], the negative-log EC50 (pEC50) was greater than 5.00 and the Emax is 25 to 100%.
For the compound `CC(c1nc2ccccc2c(=O)n1C)N1CCN(C(=O)c2ccccc2)CC1` (stereo not drawn) [compound 52], the pEC50 is 4.60 to 5.00 and the Emax is less than 25%.
On to `CC(c1nc2ccccc2c(=O)n1C)N1CCCNCC1` (stereo not drawn) [compound 184], for which the pEC50 is 4.22 to 4.60 and the Emax was less than 25%.
For `CC(=O)Nc1nc(C)c(S(=O)(=O)N2CCN(C(C)c3nc4ccccc4c(=O)n3C)CC2)s1` (stereo not drawn) [compound 243], in that order: 4.22 to 4.60 and 25 to 100%.
Turning to `CC(c1nc2ccccc2c(=O)n1C)N1CCN(C(=O)c2ccc(Br)cc2)CC1` (stereo not drawn) [compound 55], the pEC50 is 4.60 to 5.00 and the Emax was less than 25%.
For `CC(c1nc2ccccc2c(=O)n1C)N1CCN(S(=O)(=O)c2ccc(C(F)(F)F)cc2)CC1` (stereo not drawn) [compound 70], in that order: greater than 5.00 and 25 to 100%.
Consider `CCN(CC)c1nc(C(C)N2CCN(S(=O)(=O)c3ccc(Br)cc3)CC2)nc2ccccc12` (stereo not drawn) [compound 222], for which the pEC50 is greater than 5.00 and the Emax lay within 25 to 100%.
For `CC(c1nc2ccc(Cl)cc2c(=O)n1C)N1CCN(S(=O)(=O)c2ccc(C(F)(F)F)cc2)CC1` (stereo not drawn) [compound 73] the same measures were greater than 5.00 and 25 to 100%.
Turning to `CC(c1nc(OC2CCCC2)c2ccccc2n1)N1CCN(S(=O)(=O)c2ccc(Cl)cc2)CC1` (stereo not drawn) [compound 231], the pEC50 was greater than 5.00 and the Emax is greater than 100%.
As for `CCCn1c(C(C)N2CCN(S(=O)(=O)c3ccc(Br)cc3)CC2)nc2ccccc2c1=O` (stereo not drawn) [compound 27], the pEC50 was greater than 5.00 and the Emax was greater than 100%.
As to `COc1ccc(S(=O)(=O)N2CCN(C(C)c3nc(N4CCCC4C)c4ccccc4n3)CC2)cc1` (stereo not drawn) [compound 325], the pEC50 was greater than 5.00 and the Emax is greater than 100%.
Consider `COc1ccc(S(=O)(=O)N2CCN(C(C)c3nccc(N4CCCCC4)n3)CC2)cc1` (stereo not drawn) [compound 360], for which the pEC50 was 4.22 to 4.60 and the Emax fell in the range of 25 to 100%.
`CNc1nc(C(C)N2CCN(S(=O)(=O)c3ccc(OC)cc3)CC2)nc2ccccc12` (stereo not drawn) [compound 192]: the pEC50 is 4.22 to 4.60 and the Emax was 25 to 100%.
For `COc1ccc(S(=O)(=O)N2CCN(C(C)c3nc4ccc(Cl)cc4c(=O)n3C)CC2)cc1OC` (stereo not drawn) [compound 72], in that order: 4.60 to 5.00 and 25 to 100%.
